Results: US3970648A, “2-[2-(5-Nitro-2-furyl)vinyl]-4-(anilino)quinazolines” (Diamond Shamrock Corporation, priority 1974, dated 1976)

Experiments:
Assay type in all cases: cell-based
[1] = system: Erysipelothrix rhusiopathiae; assay: Bactericide test, Erysipelothrix rhusiopathiae (agar streak plate)
Description: (§1) Test formulations were examined for bactericidal and/or bacteriostatic activity against the test organisms shown in Tables A and B. These organisms were chosen as being representative of commercially important pathogens affecting animal agriculture. The antibiotic chlortetracycline was chosen as a positive control, since it has a broad spectrum of activity against a large number of organisms, and its activity can be used for comparative purposes.
(§2) Basic test formulations of the product of Examples I, II, III, and of chlortetracycline were prepared by dissolving 16 mg (0.016 g) in 2.0 ml of stock emulsifier solution (0.25% Triton X-155 in acetone by volume) and making each solution up to 50 ml with deionized water. The concentration of the test compound in the basic formulation was 320 ppm. Lower concentrations of the test compound were obtained by diluting the basic formulation with a 4% solution of the stock emulsifier in deionized water so that each dilution in the series differed only in test compound content.
(§3) Nutrient-tryptic soy agar (NTA) consisting of 2.0% Difco Bactoagar 0.8% nutrient broth (Difco), and 0.5% tryptic soy broth (Difco) was prepared and sterilized by autoclaving. A 2 ml aliquot of each test formulation was added to 8 ml of molten NTA. This mixture was then plated in a sterile polystyrene petri dish (100 × 15 mm). After the agar was set, suspensions of each of the test organisms were simultaneously streaked onto the surface of the agar. The inoculated plates were incubated for 48 hr at 28°C. The inhibition of growth of each organism was rated by visual comparison with the organism developing on non-treated agar. Growth inhibition reported as per cent control was rated in three categories as follows: 0% control, growth equivalent to that on non-treated agar; 50% control, sparse development and separated colonies; 100% control, no visible growth or development of colonies.

Vibrio coli = assay: Bactericide test, Vibrio coli (agar streak plate)
Description: as §1, §2, §3

Streptococcus group E = assay: Bactericide test, Streptococcus group E (agar streak plate)
Description: as §1, §2, §3

Staphylococcus aureus = assay: Bactericide test, Staphylococcus aureus (agar streak plate); conditions: Staphylococcus aureus
Description: as §1, §2, §3
(§4) Test formulations of the product of Example IV were examined for bactericidal and/or bacteriostatic activity against the test organisms shown in Table B using the Bactericide Test described in Example V. The inhibition of organism growth with each diluted test formulation was rated visually by comparison with the organism developing on a non-treated control agar plate. Growth inhibition reported as per cent control was rated in three categories as follows: 0% control, growth equivalent to that on non-treated agar; 50% control is sparse development and separated colonies; and 100% control, development of individual colonies was not apparent.

Streptococcus agalactiae = assay: Bactericide test, Streptococcus agalactiae (agar streak plate)
Description: as §1, §2, §3

Salmonella typhimurium = assay: Bactericide test, Salmonella typhimurium (agar streak plate); conditions: Salmonella enterica, TYPHIMURIUM
Description: as §1, §2, §3

[2] = system: Bordetella bronchiseptica; assay: Bactericide test, Bordetella bronchiseptica (agar streak plate)
Description: as §1, §2, §3

Streptococcus faecalis = assay: Bactericide test, Streptococcus faecalis (agar streak plate)
Description: as §1, §2, §3, §4

Salmonella cholerasuis = assay: Bactericide test, Salmonella cholerasuis (agar streak plate); conditions: Salmonella
Description: as §1, §2, §3, §4

Salmonella gallinarum = assay: Bactericide test, Salmonella gallinarum (agar streak plate); conditions: Salmonella enterica, GALLINARUM
Description: as §1, §2, §3, §4

Escherichia coli = assay: Bactericide test, Escherichia coli (agar streak plate)
Description: as §1, §2, §3, §4

[3] = 100% inhibition at lower concentrations

Structure (SMILES): O=[N+]([O-])c1ccc(C=Cc2nc(Nc3ccc(O)cc3)c3ccccc3n2)o1 [Example I, 2-[2-(5-nitro-2-furyl)vinyl]-4-(p-hydroxyanilino)quinazoline]
- effectiveness compared with chlortetracycline (in words) [1, 3]: considerably more effective
- inhibition at 0.125 ppm ([1]; Erysipelothrix rhusiopathiae, 0.125 ppm): 100%
- inhibition at 0.25 ppm ([1]; Erysipelothrix rhusiopathiae, 0.25 ppm): 100%
- inhibition at 0.5 ppm ([1]; Erysipelothrix rhusiopathiae, 0.5 ppm): 100%
- inhibition at 1 ppm ([1]; Erysipelothrix rhusiopathiae, 1 ppm): 100%
- inhibition at 2 ppm ([1]; Erysipelothrix rhusiopathiae, 2 ppm): 100%
- inhibition at 4 ppm ([1]; Erysipelothrix rhusiopathiae, 4 ppm): 100%
- inhibition at 8 ppm ([1]; Erysipelothrix rhusiopathiae, 8 ppm): 100%
- inhibition at 16 ppm ([1]; Erysipelothrix rhusiopathiae, 16 ppm): 100%
- inhibition at 32 ppm ([1]; Erysipelothrix rhusiopathiae, 32 ppm): 100%
- inhibition at 64 ppm ([1]; Erysipelothrix rhusiopathiae, 64 ppm): 100%
- effectiveness compared with chlortetracycline (in words) (Vibrio coli; [3]): considerably more effective
- inhibition at 0.125 ppm (Vibrio coli; Campylobacter coli, 0.125 ppm): 100%
- inhibition at 0.25 ppm (Vibrio coli; Campylobacter coli, 0.25 ppm): 100%
- inhibition at 0.5 ppm (Vibrio coli; Campylobacter coli, 0.5 ppm): 100%
- inhibition at 1 ppm (Vibrio coli; Campylobacter coli, 1 ppm): 100%
- inhibition at 2 ppm (Vibrio coli; Campylobacter coli, 2 ppm): 100%
- inhibition at 4 ppm (Vibrio coli; Campylobacter coli, 4 ppm): 100%
- inhibition at 8 ppm (Vibrio coli; Campylobacter coli, 8 ppm): 100%
- inhibition at 16 ppm (Vibrio coli; Campylobacter coli, 16 ppm): 100%
- inhibition at 32 ppm (Vibrio coli; Campylobacter coli, 32 ppm): 100%
- inhibition at 64 ppm (Vibrio coli; Campylobacter coli, 64 ppm): 100%
- inhibition at 0.125 ppm (Streptococcus group E; 0.125 ppm): 100%
- inhibition at 0.25 ppm (Streptococcus group E; 0.25 ppm): 100%
- inhibition at 0.5 ppm (Streptococcus group E; 0.5 ppm): 100%
- inhibition at 1 ppm (Streptococcus group E; 1 ppm, read-out: % Inhibition): 100%
- inhibition at 2 ppm (Streptococcus group E; 2 ppm): 100%
- inhibition at 4 ppm (Streptococcus group E; 4 ppm, read-out: % Inhibition): 100%
- inhibition at 8 ppm (Streptococcus group E; 8 ppm): 100%
- inhibition at 16 ppm (Streptococcus group E; 16 ppm, read-out: % Inhibition): 100%
- inhibition at 32 ppm (Streptococcus group E; 32 ppm): 100%
- inhibition at 64 ppm (Streptococcus group E; 64 ppm, read-out: % Inhibition): 100%
- effectiveness compared with chlortetracycline (in words) (Streptococcus group E; [3]): considerably more effective
- inhibition at 0.125 ppm (Staphylococcus aureus; 0.125 ppm): 0%
- inhibition at 0.25 ppm (Staphylococcus aureus; 0.25 ppm): 0%
- inhibition at 0.5 ppm (Staphylococcus aureus; 0.5 ppm): 0%
- inhibition at 1 ppm (Staphylococcus aureus; 1 ppm, read-out: % Inhibition): 0%
- inhibition at 2 ppm (Staphylococcus aureus; 2 ppm): 0%
- inhibition at 4 ppm (Staphylococcus aureus; 4 ppm, read-out: % Inhibition): 0%
- inhibition at 8 ppm (Staphylococcus aureus; 8 ppm): 0%
- inhibition at 16 ppm (Staphylococcus aureus; 16 ppm, read-out: % Inhibition): 0%
- inhibition at 32 ppm (Staphylococcus aureus; 32 ppm): 0%
- inhibition at 64 ppm (Staphylococcus aureus; 64 ppm, read-out: % Inhibition): 0%
- effectiveness compared with chlortetracycline (in words) (Streptococcus agalactiae; [3]): considerably more effective
- inhibition at 0.125 ppm (Streptococcus agalactiae; Streptococcus agalactiae, 0.125 ppm): 100%
- inhibition at 0.25 ppm (Streptococcus agalactiae; Streptococcus agalactiae, 0.25 ppm): 100%
- inhibition at 0.5 ppm (Streptococcus agalactiae; Streptococcus agalactiae, 0.5 ppm): 100%
- inhibition at 1 ppm (Streptococcus agalactiae; Streptococcus agalactiae, 1 ppm, read-out: % Inhibition): 100%
- inhibition at 2 ppm (Streptococcus agalactiae; Streptococcus agalactiae, 2 ppm): 100%
- inhibition at 4 ppm (Streptococcus agalactiae; Streptococcus agalactiae, 4 ppm, read-out: % Inhibition): 100%
- inhibition at 8 ppm (Streptococcus agalactiae; Streptococcus agalactiae, 8 ppm): 100%
- inhibition at 16 ppm (Streptococcus agalactiae; Streptococcus agalactiae, 16 ppm, read-out: % Inhibition): 100%
- inhibition at 32 ppm (Streptococcus agalactiae; Streptococcus agalactiae, 32 ppm): 100%
- inhibition at 64 ppm (Streptococcus agalactiae; Streptococcus agalactiae, 64 ppm, read-out: % Inhibition): 100%
- inhibition at 0.125 ppm (Salmonella typhimurium; 0.125 ppm): 0%
- inhibition at 0.25 ppm (Salmonella typhimurium; 0.25 ppm): 0%
- inhibition at 0.5 ppm (Salmonella typhimurium; 0.5 ppm): 0%
- inhibition at 1 ppm (Salmonella typhimurium; 1 ppm, read-out: % Inhibition): 0%
- inhibition at 2 ppm (Salmonella typhimurium; 2 ppm): 0%
- inhibition at 4 ppm (Salmonella typhimurium; 4 ppm, read-out: % Inhibition): 0%
- inhibition at 8 ppm (Salmonella typhimurium; 8 ppm): 0%
- inhibition at 16 ppm (Salmonella typhimurium; 16 ppm, read-out: % Inhibition): 0%
- inhibition at 32 ppm (Salmonella typhimurium; 32 ppm): 0%
- inhibition at 64 ppm (Salmonella typhimurium; 64 ppm, read-out: % Inhibition): 0%
- effectiveness compared with chlortetracycline (in words) [2, 3]: considerably more effective
- inhibition at 0.125 ppm ([2]; Bordetella bronchiseptica, 0.125 ppm): 100%
- inhibition at 0.25 ppm ([2]; Bordetella bronchiseptica, 0.25 ppm): 100%
- inhibition at 0.5 ppm ([2]; Bordetella bronchiseptica, 0.5 ppm): 100%
- inhibition at 1 ppm ([2]; Bordetella bronchiseptica, 1 ppm, read-out: % Inhibition): 100%
- inhibition at 2 ppm ([2]; Bordetella bronchiseptica, 2 ppm): 100%
- inhibition at 4 ppm ([2]; Bordetella bronchiseptica, 4 ppm, read-out: % Inhibition): 100%
- inhibition at 8 ppm ([2]; Bordetella bronchiseptica, 8 ppm): 100%
- inhibition at 16 ppm ([2]; Bordetella bronchiseptica, 16 ppm, read-out: % Inhibition): 100%
- inhibition at 32 ppm ([2]; Bordetella bronchiseptica, 32 ppm): 100%
- inhibition at 64 ppm ([2]; Bordetella bronchiseptica, 64 ppm, read-out: % Inhibition): 100%
- effectiveness compared with chlortetracycline (in words) (Streptococcus faecalis; [3]): considerably more effective
- inhibition at 0.125 ppm (Streptococcus faecalis; Enterococcus faecalis, 0.125 ppm): 100%
- inhibition at 0.25 ppm (Streptococcus faecalis; Enterococcus faecalis, 0.25 ppm): 100%
- inhibition at 0.5 ppm (Streptococcus faecalis; Enterococcus faecalis, 0.5 ppm): 100%
- inhibition at 1 ppm (Streptococcus faecalis; Enterococcus faecalis, 1 ppm, read-out: % Inhibition): 100%
- inhibition at 2 ppm (Streptococcus faecalis; Enterococcus faecalis, 2 ppm): 100%
- inhibition at 4 ppm (Streptococcus faecalis; Enterococcus faecalis, 4 ppm, read-out: % Inhibition): 100%
- inhibition at 8 ppm (Streptococcus faecalis; Enterococcus faecalis, 8 ppm): 100%
- inhibition at 16 ppm (Streptococcus faecalis; Enterococcus faecalis, 16 ppm, read-out: % Inhibition): 100%
- inhibition at 32 ppm (Streptococcus faecalis; Enterococcus faecalis, 32 ppm): 100%
- inhibition at 64 ppm (Streptococcus faecalis; Enterococcus faecalis, 64 ppm, read-out: % Inhibition): 100%
- inhibition at 0.125 ppm (Salmonella cholerasuis; 0.125 ppm): 0%
- inhibition at 0.25 ppm (Salmonella cholerasuis; 0.25 ppm): 0%
- inhibition at 0.5 ppm (Salmonella cholerasuis; 0.5 ppm): 0%
- inhibition at 1 ppm (Salmonella cholerasuis; 1 ppm, read-out: % Inhibition): 0%
- inhibition at 2 ppm (Salmonella cholerasuis; 2 ppm): 0%
- inhibition at 4 ppm (Salmonella cholerasuis; 4 ppm, read-out: % Inhibition): 0%
- inhibition at 8 ppm (Salmonella cholerasuis; 8 ppm): 0%
- inhibition at 16 ppm (Salmonella cholerasuis; 16 ppm, read-out: % Inhibition): 0%
- inhibition at 32 ppm (Salmonella cholerasuis; 32 ppm): 0%
- inhibition at 64 ppm (Salmonella cholerasuis; 64 ppm, read-out: % Inhibition): 0%
- inhibition at 0.125 ppm (Salmonella gallinarum; 0.125 ppm): 0%
- inhibition at 0.25 ppm (Salmonella gallinarum; 0.25 ppm): 0%
- inhibition at 0.5 ppm (Salmonella gallinarum; 0.5 ppm): 0%
- inhibition at 1 ppm (Salmonella gallinarum; 1 ppm): 0%
- inhibition at 2 ppm (Salmonella gallinarum; 2 ppm): 0%
- inhibition at 4 ppm (Salmonella gallinarum; 4 ppm): 0%
- inhibition at 8 ppm (Salmonella gallinarum; 8 ppm): 0%
- inhibition at 16 ppm (Salmonella gallinarum; 16 ppm): 0%
- inhibition at 32 ppm (Salmonella gallinarum; 32 ppm): 0%
- inhibition at 64 ppm (Salmonella gallinarum; 64 ppm): 0%
- inhibition at 0.125 ppm (Escherichia coli; 0.125 ppm): 0%
- inhibition at 0.25 ppm (Escherichia coli; 0.25 ppm): 0%
- inhibition at 0.5 ppm (Escherichia coli; 0.5 ppm): 0%
- inhibition at 1 ppm (Escherichia coli; 1 ppm, read-out: % Inhibition): 0%
- inhibition at 2 ppm (Escherichia coli; 2 ppm): 0%
- inhibition at 4 ppm (Escherichia coli; 4 ppm, read-out: % Inhibition): 0%
- inhibition at 8 ppm (Escherichia coli; 8 ppm): 0%
- inhibition at 16 ppm (Escherichia coli; 16 ppm, read-out: % Inhibition): 0%
- inhibition at 32 ppm (Escherichia coli; 32 ppm): 0%
- inhibition at 64 ppm (Escherichia coli; 64 ppm, read-out: % Inhibition): 0%
